Measured values taken from patent US10851067B2, “Kv7 channel activators compositions and methods of use” (Knopp Biosciences LLC, priority 2018, dated 2020).

molecular target: Kv7.2/7.3 (Homo sapiens, UniProt O43525+O43526); test: Kv7.2/7.3 Activation Assay, QPatch single concentration screen; format: cell-based; set-up: host or cells: HEK cells, tetracycline-inducible expression; key: 1.2-2.9 (+); 3-3.9 (++); >4 (+++) fold increase over baseline; O represents open channel at holding potential; details: Kv7.2/Kv7.3 co-expressing HEK cells, compound concentration 3 μM, steady-state current at end of 2 s pulse to −30 mV
In short: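 Tetracycline-induced HEK cells expressing human Kv7.2/7.3, recorded 24 h post-induction by automated planar patch clamp. From −80 mV, 2 s steps to −30 mV then 100 ms to −120 mV; compound tested at 3 μM (0.1% DMSO). Steady-state current at end of −30 mV step gives fold increase over baseline.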

SMILES	Kv7.2/7.3 Activity: increase over baseline in current
CC(C)(C)CC(=O)Nc1nc2ccc(OC(F)F)cc2n1C(C)(C)C [Example 393, N-(1-(tert-butyl)-6-(difluoromethoxy)-1H-benzo[d]imidazol-2-yl)-3,3-dimethylbutanamide]	+++ (>4 (+++) fold increase over baseline)
COCc1c(F)ccc2nc(NC(=O)CC(C)(C)C)n(C3CCC3)c12 [Example 394, N-(1-cyclobutyl-6-fluoro-7-(methoxymethyl)-1H-benzo[d]imidazol-2-yl)-3,3-dimethylbutanamide]	O
COCc1c(Cl)ccc2nc(NC(=O)CC(C)(C)C)n(C3CCC3)c12 [Example 399, N-(6-chloro-1-cyclobutyl-7-(methoxymethyl)-1H-benzo[d]imidazol-2-yl)-3,3-dimethylbutanamide]	+++ (>4 (+++) fold increase over baseline)
CC(C)(C)CC(=O)Nc1nc2ccc(C#N)cc2n1C(C)(C)C(F)(F)F [Example 401, N-(6-cyano-1-(1,1,1-trifluoro-2-methylpropan-2-yl)-1H-benzo[d]imidazol-2-yl)-3,3-dimethylbutanamide]	++ (3-3.9 (++))
CC1(CC(=O)Nc2nc3c(F)cc(C(C)(C)O)cc3n2C2CCC2)CC1 [Example 403, N-(1-cyclobutyl-4-fluoro-6-(2-hydroxypropan-2-yl)-1H-benzo[d]imidazol-2-yl)-2-(1-methylcyclopropyl)acetamide]	++ (3-3.9 (++))
CC(C)(O)c1ccc2nc(NC(=O)CC(C)(C)C(F)(F)F)n(C34CC(C3)C4)c2c1 [Example 404, N-(1-(bicyclo[1.1.1]pentan-1-yl)-6-(2-hydroxypropan-2-yl)-1H-benzo[d]imidazol-2-yl)-4,4,4-trifluoro-3,3-dimethylbutanamide]	+ (1.2-2.9 (+))
CC(C)(O)c1cc(F)c2nc(NC(=O)CC3CC(F)(F)C3(F)F)n(C3CCC3)c2c1 (stereo not drawn) [Example 405, N-(1-cyclobutyl-4-fluoro-6-(2-hydroxypropan-2-yl)-1H-benzo[d]imidazol-2-yl)-2-(2,2,3,3-tetrafluorocyclobutyl)acetamide]	++ (3-3.9 (++))
CC(C)(O)c1ccc2nc(NC(=O)CC(C)(C)C3CC3)n(CC(F)(F)F)c2c1 [Example 406, 3-cyclopropyl-N-(6-(2-hydroxypropan-2-yl)-1-(2,2,2-trifluoroethyl)-1H-benzo[d]imidazol-2-yl)-3-methylbutanamide]	+++ (>4 (+++) fold increase over baseline)
C[C@H](C(=O)Nc1nc2ccc(C(C)(C)O)cc2n1CC(F)(F)F)C(C)(C)C [Example 407, (S)-N-(6-(2-hydroxypropan-2-yl)-1-(2,2,2-trifluoroethyl)-1H-benzo[d]imidazol-2-yl)-2,3,3-trimethylbutanamide]	++ (3-3.9 (++))
CC(C)(CC(=O)Nc1nc2cccc(F)c2n1C1CCC1)C(F)(F)F [Example 408, N-(1-cyclobutyl-7-fluoro-1H-benzo[d]imidazol-2-yl)-4,4,4-trifluoro-3,3-dimethylbutanamide]	++ (3-3.9 (++))
CC1(n2c(NC(=O)CC(O)(c3ccccc3)C(F)(F)F)nc3c(F)cc(OC(F)F)cc32)CCC1 (stereo not drawn) [Example 409, N-(6-(difluoromethoxy)-4-fluoro-1-(1-methylcyclobutyl)-1H-benzo[d]imidazol-2-yl)-4,4,4-trifluoro-3-hydroxy-3-phenylbutanamide]	+ (1.2-2.9 (+))
C[C@@H](CC(=O)Nc1nc2c(F)cc(C(C)(C)O)cc2n1C1CCC1)c1ccccc1 [Example 410, (S)-N-(1-cyclobutyl-4-fluoro-6-(2-hydroxypropan-2-yl)-1H-benzo[d]imidazol-2-yl)-3-phenylbutanamide]	O
CC(C)(C)CC(=O)Nc1nc2c(F)cc(C#N)cc2n1C1CCC1 [Example 411, N-(6-cyano-1-cyclobutyl-4-fluoro-1H-benzo[d]imidazol-2-yl)-3,3-dimethylbutanamide]	+++ (>4 (+++) fold increase over baseline)
C[C@H](CC(=O)Nc1nc2c(F)cc(C(C)(C)O)cc2n1C1CCC1)c1ccccc1 [Example 412, (R)-N-(1-cyclobutyl-4-fluoro-6-(2-hydroxypropan-2-yl)-1H-benzo[d]imidazol-2-yl)-3-phenylbutanamide]	++ (3-3.9 (++))
CC(C)(O)c1cc(F)c2nc(NC(=O)CSC(F)(F)F)n(C3CCC3)c2c1 [Example 413, N-(1-cyclobutyl-4-fluoro-6-(2-hydroxypropan-2-yl)-1H-benzo[d]imidazol-2-yl)-2-((trifluoromethyl)thio)acetamide]	+++ (>4 (+++) fold increase over baseline)
COc1c(Cl)c(Cl)c(Cl)c2nc(NC(=O)CC(C)(C)C)n(C3CCC3)c12 [Example 414, 3,3-dimethyl-N-(4,5,6-trichloro-1-cyclobutyl-7-methoxy-1H-benzo[d]imidazol-2-yl)butanamide]	++ (3-3.9 (++))
CC(C)(C)CC(=O)Nc1nc2ccc(F)cc2n1C1CCC1 [Example 417, N-(1-cyclobutyl-6-fluoro-1H-benzo[d]imidazol-2-yl)-3,3-dimethylbutanamide]	++ (3-3.9 (++))
CC1(n2c(NC(=O)CC(C)(C)C(F)(F)F)nc3c(OC(F)F)cc(C#N)cc32)CCC1 [Example 419, N-(6-cyano-4-(difluoromethoxy)-1-(1-methylcyclobutyl)-1H-benzo[d]imidazol-2-yl)-4,4,4-trifluoro-3,3-dimethylbutanamide]	+ (1.2-2.9 (+))
CC(C)(C)CC(=O)Nc1nc2c(F)cc(C#N)cc2n1C(C)(C)C [Example 420, N-(1-(tert-butyl)-6-cyano-4-fluoro-1H-benzo[d]imidazol-2-yl)-3,3-dimethylbutanamide]	+ (1.2-2.9 (+))
CC(C)(C)CC(=O)Nc1nc2c(F)cc(C3(O)CCC3)cc2n1C1CCC1 [Example 421, N-(1-cyclobutyl-4-fluoro-6-(1-hydroxycyclobutyl)-1H-benzo[d]imidazol-2-yl)-3,3-dimethylbutanamide]	+++ (>4 (+++) fold increase over baseline)
CC1(n2c(NC(=O)CC(O)(CF)CF)nc3ccc(OC(F)F)c(F)c32)CCC1 [Example 423, N-(6-(difluoromethoxy)-7-fluoro-1-(1-methylcyclobutyl)-1H-benzo[d]imidazol-2-yl)-4-fluoro-3-(fluoromethyl)-3-hydroxybutanamide]	+ (1.2-2.9 (+))
CC(C)(C)CC(=O)Nc1nc2cc(F)c(C3(O)CCC3)c(F)c2n1C1CCC1 [Example 424, N-(1-cyclobutyl-5,7-difluoro-6-(1-hydroxycyclobutyl)-1H-benzo[d]imidazol-2-yl)-3,3-dimethylbutanamide]	O
CC(C)(C)CC(=O)Nc1nc2ccc(C(C)(C)O)cc2n1C12CC(C1)C2 [Example 425, N-(1-(bicyclo[1.1.1]pentan-1-yl)-6-(2-hydroxypropan-2-yl)-1H-benzo[d]imidazol-2-yl)-3,3-dimethylbutanamide]	++ (3-3.9 (++))
CC(C)(CC(=O)Nc1nc2cccc(C#N)c2n1C1(C)CCC1)C1CC1 [Example 426, N-(7-cyano-1-(1-methylcyclobutyl)-1H-benzo[d]imidazol-2-yl)-3-cyclopropyl-3-methylbutanamide]	+++ (>4 (+++) fold increase over baseline)
CC(C)(CC(=O)Nc1nc2ccc(OC(F)F)cc2n1C(C)(C)C)C1CC1 [Example 427, N-(1-(tert-butyl)-6-(difluoromethoxy)-1H-benzo[d]imidazol-2-yl)-3-cyclopropyl-3-methylbutanamide]	++ (3-3.9 (++))
COc1ccc2nc(NC(=O)CC(C)(C)C)n(C3CCC3)c2c1F [Example 429, N-(1-cyclobutyl-7-fluoro-6-methoxy-1H-benzo[d]imidazol-2-yl)-3,3-dimethylbutanamide]	+++ (>4 (+++) fold increase over baseline)
CC(C)(CC(=O)Nc1nc2c(F)cc(C#N)cc2n1C12CC(C1)C2)C(F)(F)F [Example 431, N-(1-(bicyclo[1.1.1]pentan-1-yl)-6-cyano-4-fluoro-1H-benzo[d]imidazol-2-yl)-4,4,4-trifluoro-3,3-dimethylbutanamide]	++ (3-3.9 (++))
CC(C)(C)CC(=O)Nc1nc2ccc(C3(F)COC3)cc2n1C1CCC1 [Example 432, N-(1-cyclobutyl-6-(3-fluorooxetan-3-yl)-1H-benzo[d]imidazol-2-yl)-3,3-dimethylbutanamide]	+++ (>4 (+++) fold increase over baseline)
COc1cc(F)c2nc(NC(=O)CC(C)(C)C(F)(F)F)n(C3(C)CCC3)c2c1 [Example 433, 4,4,4-trifluoro-N-(4-fluoro-6-methoxy-1-(1-methylcyclobutyl)-1H-benzo[d]imidazol-2-yl)-3,3-dimethylbutanamide]	++ (3-3.9 (++))
CC(C)(CC(=O)Nc1nc2ccc(OC(F)F)cc2n1C1(C)CCC1)C1CC1 [Example 434, 3-cyclopropyl-N-(6-(difluoromethoxy)-1-(1-methylcyclobutyl)-1H-benzo[d]imidazol-2-yl)-3-methylbutanamide]	+++ (>4 (+++) fold increase over baseline)
